Measured values published in patent publication US20100069480A1, “METHODS AND COMPOSITIONS FOR THE TREATMENT OF CANCER” (Bionovo, Inc. A Delaware Corporation, priority 2008, published 2010).

Tests used:
Format in all cases: cell-based, human
[1] = test system: MDA MB 231 and SKBr3 breast cancer cells; assay: induction of ROS, CM-H2DCFDA fluorescence; conditions: for induction of cellular ROS: CM-H2DCFDA probe
Experimental: (§1) The following parameters were examined: • 1. Induction of the loss of the mitochondrial transmembrane potential (MTP). […] Induction of reactive oxygen species (ROS). Induced fluorescence from the cell permeable indicators of ROS such as dihydroethidium (specific for superoxide) (FIG. 2), CM-H2DCFDA (most types of ROS) (FIG. 1) and MitoSOX (mitochondrially derived superoxide) (FIG. 3) was studied using a fluorescent plate reader and FACS. • 3. Compounds were also tested for the potential cellular sources of ROS induced using either specific indicators for ROS of mitochondrial origin, and/or specific inhibitors of ROS production by known sources such as mitochondria, ubiquinone oxidoreductase NQO (mitochondrial complex I) and NADPH oxidases. • 4. Compounds were tested for induction of DNA damage using test known as comet assay that allows detection of DNA damage in individual cells. (FIG. 4) • 5. The induction of death in cells treated with the compounds was examined using propidium iodide test for cell permeability followed by analysis on FACS. • 6. The mode of cell death (i.e., apoptosis versus necrosis) was studied using several criteria: conversion of cells to positivity for binding Annexin V; DNA fragmentation (characteristic of apoptotic death) and decrease in cellular ATP levels (commonly observed during necrotic death) (FIG. 5). […]
DCFDA is nonfluorescent in reduced form and is readily membrane-permeant. Cellular esterases cleave its acetate groups. The thiol-reactive chloromethyl group then binds to cellular thiols, trapping the dye inside the cell, where oxidation converts it to the fluorescent form. CM-H2DCFDA is oxidized by cellular hydrogen peroxide, hydroxyl radicals, and various free radical products lying downstream from hydrogen peroxide. It is relatively insensitive to oxidation by superoxide. However, because hydrogen peroxide is produced by dismutation of superoxide, CM-H2DCFDA serves as an indirect indicator of superoxide production.
FIG. 1. […] The indicated compounds were added to cells at 20 μg/ml growth medium, followed by addition of 10 μM CM-H2 DCFDA. Inhibitor of mitochondrial respiration, NaN3, was added at 10 mM. After 30 minute incubation, cells were washed in PBS and analyzed on FACScan for fluorescence.

[2] = test system: MDA MB 231 and SKBr3 breast cancer cells; assay: mitochondrially derived superoxide, MitoSOX
Experimental: (§2) The following parameters were examined: • 1. Induction of the loss of the mitochondrial transmembrane potential (MTP). […] Induction of reactive oxygen species (ROS). Induced fluorescence from the cell permeable indicators of ROS such as dihydroethidium (specific for superoxide) (FIG. 2), CM-H2DCFDA (most types of ROS) (FIG. 1) and MitoSOX (mitochondrially derived superoxide) (FIG. 3) was studied using a fluorescent plate reader and FACS. • 3. Compounds were also tested for the potential cellular sources of ROS induced using either specific indicators for ROS of mitochondrial origin, and/or specific inhibitors of ROS production by known sources such as mitochondria, ubiquinone oxidoreductase NQO (mitochondrial complex I) and NADPH oxidases. • 4. Compounds were tested for induction of DNA damage using test known as comet assay that allows detection of DNA damage in individual cells. (FIG. 4) • 5. The induction of death in cells treated with the compounds was examined using propidium iodide test for cell permeability followed by analysis on FACS. • 6. […] Induced fluorescence from the cell permeable indicators of ROS such as dihydroethidium (specific for superoxide) (FIG. 2), CM-H2DCFDA (most types of ROS) (FIG. 1) and MitoSOX (mitochondrially derived superoxide) (FIG. 3) was studied using a fluorescent plate reader and FACS. • 3. […]

[3] = test system: MDA MB 231 and SKBr3 breast cancer cells; assay: DNA damage, comet assay
Experimental: as §1

[4] = test system: MDA MB 231 and SKBr3 breast cancer cells; assay: mode of cell death: Annexin V binding, DNA fragmentation
Experimental: The following parameters were examined: • 1. Induction of the loss of the mitochondrial transmembrane potential (MTP). […] Induction of reactive oxygen species (ROS). Induced fluorescence from the cell permeable indicators of ROS such as dihydroethidium (specific for superoxide) (FIG. 2), CM-H2DCFDA (most types of ROS) (FIG. 1) and MitoSOX (mitochondrially derived superoxide) (FIG. 3) was studied using a fluorescent plate reader and FACS. • 3. Compounds were also tested for the potential cellular sources of ROS induced using either specific indicators for ROS of mitochondrial origin, and/or specific inhibitors of ROS production by known sources such as mitochondria, ubiquinone oxidoreductase NQO (mitochondrial complex I) and NADPH oxidases. • 4. Compounds were tested for induction of DNA damage using test known as comet assay that allows detection of DNA damage in individual cells. (FIG. 4) • 5. The induction of death in cells treated with the compounds was examined using propidium iodide test for cell permeability followed by analysis on FACS. • 6. The mode of cell death (i.e., apoptosis versus necrosis) was studied using several criteria: conversion of cells to positivity for binding Annexin V; DNA fragmentation (characteristic of apoptotic death) and decrease in cellular ATP levels (commonly observed during necrotic death) (FIG. 5). 1. Induction of the loss of the mitochondrial transmembrane potential (MTP). […] Induction of reactive oxygen species (ROS). Induced fluorescence from the cell permeable indicators of ROS such as dihydroethidium (specific for superoxide) (FIG. 2), CM-H2DCFDA (most types of ROS) (FIG. 1) and MitoSOX (mitochondrially derived superoxide) (FIG. 3) was studied using a fluorescent plate reader and FACS. • 3. Compounds were also tested for the potential cellular sources of ROS induced using either specific indicators for ROS of mitochondrial origin, and/or specific inhibitors of ROS production by known sources such as mitochondria, ubiquinone oxidoreductase NQO (mitochondrial complex I) and NADPH oxidases. • 4. […]

[5] = test system: MDA MB 231 and SKBr3 breast cancer cells; assay: cellular ATP content, ATP bioluminescence assay
Experimental: as §2

[6] = Table 11, confirmed in two breast cancer cell lines

Row | Structure (SMILES) | Induction of ROS (fold) ([1]; Table 11, confirmed in two breast cancer cell lines, listed as cmpd 9) | Induction of ROS (fold) ([1]; Table 12) | conversion of MitoSOX, detector of mitochondrially derived superoxide [2] | induction of DNA damage [3] | cell death and its mode [4] | change in cellular ATP levels [5] | induction of cellular ROS [1] | Induction of ROS (fold) [1, 6] [fold]
1 | O=c1cc(-c2ccc(O)cc2)oc2cc(O)cc(O)c12 [Apigenin] | 1.5 | 1.5 | converted to its fluorescent form | do not induce DNA damage | induce significant cell death characterized as apoptotic | slight but consistent increase in ATP levels |  | 
2 | O=c1cc(-c2ccc(O)cc2)oc2cc(O)c(O)c(O)c12 [Scutellarein] |  |  |  | induce DNA damage | cell death that has hallmarks of programmed necrosis |  | induce ROS, but of extra-mitochondrial origin | 2.4
3 | O=c1cc(-c2ccc(O)cc2)oc2cc(O)cc(O)c12 [cmpd 4] |  |  |  |  |  |  |  | 0.6
4 | O=C1CC(c2ccc(O)cc2)Oc2c(O)c(O)cc(O)c21 (centres unmarked) [Isocarthamidin] |  |  |  | induce DNA damage |  |  | induce ROS, but of extra-mitochondrial origin | 
5 | O=c1cc(-c2ccc(O)cc2)oc2c(O)c(O)cc(O)c12 [Isoscutellarein] |  | 1.5 |  | induce DNA damage | cell death that has hallmarks of programmed necrosis |  | induce ROS, but of extra-mitochondrial origin | 1.5
6 | O=C1CC(c2ccc(O)cc2)Oc2cc(O)c(O)c(O)c21 (centres unmarked) [Carthamidin] |  |  |  | induce DNA damage |  |  | induce ROS, but of extra-mitochondrial origin | 
